Source: patent publication US20100317565A1, “Novel Peptides and Their Use for the Treatment of Edema” (Rentschler Beteiligungs GmbH, priority 2007, published 2010)
Entries after “also recorded” stand apart in the source; their conditions may differ. Bridge positions count the residues as written; N and C are the ends. Ends that are not written are not given here.

Assays:
[1] = test system: polarized Calu-3 cell monolayers; test: Transepithelial electrical resistance (TEER) assay on polarized Calu-3 cell monolayers; assay type: cell-based, human; conditions: peptide 250 μM added to apical and basolateral compartment; peak TEER value as percent of Tip peptide (=100%)
[2] = test system: microvascular endothelial cells; conditions: cited from earlier work
in situ mouse lung = conditions: cited from earlier work
rat lung = conditions: ex vivo and in vivo rat lung model; cited from earlier work
[3] = test system: isolated blood perfused flooded rat lung (E. coli-LPS induced lung edema); test: Endotoxin induced lung injury in the isolated blood perfused flooded rat lung model; assay type: in vivo, male Spraque-Dawley rats; conditions: P5 3 mg or P9 10 mg in 1 ml saline i.t.; for Attenuation of LPS-induced total lung weight gain / lung edema production: LPS 3 mg/kg i.t., 18 h, 2-h ex-vivo reperfusion; for Inspiratory resistive work / Static and dynamic lung compliance: LPS-treated lungs; for Inspiratory resistive work / Static and dynamic lung compliance / Effect on lung wet/dry weight ratio: 2-h reperfusion; for Effect on lung wet/dry weight ratio: versus LPS+saline treated lungs
Method: In the “Endotoxin induced lung injury in the isolated blood perfused flooded rat lung model”, which is an ex vivo permeability lung edema model, E. coli-LPS is instilled intratracheally and after […] the lung is isolated and placed in an artificial thorax chamber. Then, perfusion occurs with autolo-gous blood. After an one hour stabilisation period, the test compound (in 1 ml saline) is instilled intratra-cheally. Lung parameters are measured over 2 hours. The main read-outs are lung-weight and parameters of lung mechanics and hemodynamics.
In the “Endotoxin induced lung injury in the isolated blood perfused flooded rat lung model”, which is an ex vivo permeability lung edema model, E. coli-LPS is instilled intratracheally and after […] the lung is isolated and placed in an artificial thorax chamber. Then, perfusion occurs with autologous blood. After an one hour stabilisation period, the test compound (in 1 ml saline) is instilled intratracheally. Lung parameters are measured over 2 hours. The primary readout parameters of this […] model are wet weight of lung and heart and P/V curves which are parameters of lung mechanics and hemodynamics.
In this ex vivo lung edema model, E. coli-LPS (3 mg/kg) was instilled intratracheally into male Spraque-Dawley rats. After 18 h the lung was isolated and placed in an artificial thorax chamber. Then, perfusion occurred with autologous blood. After one hour stabilisation period, the test compound (in 1 ml saline) was instilled intratracheally. Lung parameters were measured over 2 h. The main read-outs were lung-weight and parameters of lung mechanics and hemodynamics. • Number of rats: n=7-8 per group • Data are means±SEM • Treatment groups:
? P9 • Perfusion conditions: • imposed pulmonary artery perfusion pressure: 20 mmHg • imposed left atrial pressure: 10 mmHg • resulting pulmonary blood flow: ˜6-9 ml/min • resulting pulmonary microvascular pressure: ˜14.5 mmHg • imposed tidal volume: 7 ml/kg; respiratory rate: 30 bpm • imposed positive end-expiratory airway pressure: 3.0 cmH2O-arterial pH: 7.5 • adjusted hematocrit: 28% (autologous blood)

Substance | Activity in TEER assay (c = 250 μM) (% of Tip activity) [1] | other results
2 (CGTKPIELGPDEPKAVC; disulfide 1-17 (inferred)) [compound 2] | 130.1 % of Tip activity | 
5 (TPEGAETPEGAETPEGAETPEGAETPEGAE; anti-edema peptide) [compound 5] | 93.0 % of Tip activity | 
11 (TPEGAEGGGGGTPEGAEGGGGGTPEGAE; anti-edema peptide) [compound 11] | 80.0 % of Tip activity | 
20 (GGSPSQRETPEGAEAKPWYGGSPSQRETPEGAEAKPWYGGSPSQRETPEGAEAKPWY; anti-edema peptide) [compound 20] | 539.0 % of Tip activity | 
35 (CGQRESPEGAEAKPWYC; anti-edema peptide) [compound 35] | 120.9 % of Tip activity | 
36 (CGQRESPEGADAKPWYC; anti-edema peptide) [compound 36] | 119.4 % of Tip activity | 
39 (CGQRESPDGAEAKPWYC; anti-edema peptide) [compound 39] | 88.8 % of Tip activity | 
40 (CGQRESPDGADAKPWYC; anti-edema peptide) [compound 40] | 127.7 % of Tip activity | 
42 (CGQRESPDGGDAKPWYC; anti-edema peptide) [compound 42] | 123.6 % of Tip activity | 
43 (CGQRETPEGADAKPWYC; anti-edema peptide) [compound 43] | 139.8 % of Tip activity | 
45 (CGQRETPDGADAKPWYC; anti-edema peptide) [compound 45] | 172.4 % of Tip activity | 
46 (CGQRETPDGAEAKPWYC; anti-edema peptide) [compound 46] | 130.4 % of Tip activity | 
49 (CGTPEGAETPEGAETPEGAEGC; anti-edema peptide) [compound 49] | 139.9 % of Tip activity | 
50 (CGGGGGTPEGAEGGGGGTPEGAEGGGGGTPEGAEGC; anti-edema peptide) [compound 50] | 156.5 % of Tip activity | 
51 (CGTPEGAETPEGAETPEGAETPEGAETPEGAEGC; anti-edema peptide) [compound 51] | 146.6 % of Tip activity | 
52 (SPEGGEGGGGGSPEGGEGGGGGSPEGGE; anti-edema peptide) [compound 52] | 87.1 % of Tip activity | 
53 (CGSPEGGEGGGGGSPEGGEGGGGGSPEGGEGC; anti-edema peptide) [compound 53] | 131.7 % of Tip activity | 
54 (SPEGGDGGGGGSPEGGDGGGGGSPEGGD; anti-edema peptide) [compound 54] | 90.7 % of Tip activity | 
55 (CGSPEGGDGGGGGSPEGGDGGGGGSPEGGDGC; anti-edema peptide) [compound 55] | 146.0 % of Tip activity | 
CGQRETPEGAEAKPWYC [SEQ ID NO: 61] |  | Membrane conductance [2]: increased; Alveolar fluid reabsorption (in situ mouse lung): up-regulated; Alveolar fluid reabsorption (rat lung): up-regulated
CGSPEGGDSPEGGDSPEGGDGC (anti-edema peptide) [Peptide P5] |  | Attenuation of LPS-induced total lung weight gain / lung edema production [3]: significantly attenuate; also recorded: attenuating the LPS-induced total lung weight gain; Inspiratory resistive work [3]: especially reduces; Static and dynamic lung compliance [3]: markedly ameliorates; Effect on lung wet/dry weight ratio [3]: statistically significantly different from LPS+saline treated lungs
SPEGGEGGGGGSPEGGEGGGGGSPEGGE (anti-edema peptide) [SEQ ID NO: 52] |  | Attenuation of LPS-induced total lung weight gain / lung edema production ([3]; listed as P9): attenuating the LPS-induced total lung weight gain; Inspiratory resistive work [3]: especially reduces; Static and dynamic lung compliance [3]: markedly ameliorates; Effect on lung wet/dry weight ratio [3]: less pronounced
